Experimental findings from the supplement of paper PMC10307832 are described below.

Holding throughout (assay): relative viability (nuclei count vs DMSO), 5 days (fraction); higher = more cells survive
Compound in test [1]: CC(C)(C)c1cc(NC(=O)Nc2ccc(-c3cn4c(n3)sc3cc(OCCN5CCOCC5)ccc34)cc2)no1 [Quizartinib] + O=C(c1cc(Cc2n[nH]c(=O)c3ccccc23)ccc1F)N1CCN(C(=O)C2CC2)CC1 [Olaparib] (partner 8 µM)
The procedure, abridged: (§1)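 After 5 days of treatment, lung cancer cells in 1536-well plates were fixed and stained in a single step (final 0.05% Triton X-100, 1% formaldehyde, 1 ug/ml Hoechst) and their nuclei counted on 4× images. Treatment had been applied by pin tool the day after seeding as one drug alone or as a fixed anchor-drug dose with five library-drug doses (not always all listed) in √10 steps. Relative viability is the nuclei count of treated wells divided by that of vehicle wells, and values are medians of duplicate plates.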

Compound in test [2]: COCC[n+]1c2c(n(Cc3cnccn3)c1C)C(=O)c1ccccc1C2=O [YM155] + CC(=O)Nc1cccc(-n2c(=O)n(C3CC3)c(=O)c3c(Nc4ccc(I)cc4F)n(C)c(=O)c(C)c32)c1 [Trametinib] (partner 0.02 µM)
The method, boiled down: as §1

Compound in test [3]: COCC[n+]1c2c(n(Cc3cnccn3)c1C)C(=O)c1ccccc1C2=O [YM155] + COc1cccc2cc(-c3nc([C@H]4CC[C@H](C(=O)O)CC4)n4ncnc(N)c34)[nH]c12 [OSI-027] (partner 0.5 µM)
The method, boiled down: as §1

Compound in test [4]: COCC[n+]1c2c(n(Cc3cnccn3)c1C)C(=O)c1ccccc1C2=O [YM155] + C[C@@H](Oc1cc(-c2cnn(C3CCNCC3)c2)cnc1N)c1c(Cl)ccc(F)c1Cl [Crizotinib] (partner 1 µM)
The method, boiled down:
as §1

For PC-14, the relative viability in test [1] (first compound 0.001 µM) was 0.263; in test [1] (first compound 0.003162 µM) it was 0.26; in test [1] (first compound 0.01 µM), 0.252; in test [1] (first compound 0.03162 µM), 0.184; in test [1] (first compound 0.1 µM) it was 0.318; in test [2] (first compound 0.002 µM), 0.617. The relative viability in test [2] (first compound 0.006325 µM) stood at 0.672; in test [2] (first compound 0.02 µM), 0.36; in test [2] (first compound 0.06325 µM), 0.119; in test [3] (first compound 0.002 µM), 0.788; in test [3] (first compound 0.006325 µM), 0.901; in test [3] (first compound 0.02 µM) it was 0.829. Further, the relative viability in test [3] (first compound 0.06325 µM) was found to be 0.371; in test [4] (first compound 0.002 µM) it was 0.948; in test [4] (first compound 0.006325 µM), 0.931; in test [4] (first compound 0.02 µM), 1.04; in test [4] (first compound 0.06325 µM) it was 0.818.
Turning to RERF-LC-KJ, the relative viability in test [1] (first compound 0.001 µM) came out at 0.931; in test [1] (first compound 0.003162 µM), 0.807; in test [1] (first compound 0.01 µM), 0.938; in test [1] (first compound 0.03162 µM), 0.545; in test [1] (first compound 0.1 µM), 0.972; in test [2] (first compound 0.002 µM), 0.896. Besides, the relative viability in test [2] (first compound 0.006325 µM) came to 0.952; in test [2] (first compound 0.02 µM), 0.942; in test [2] (first compound 0.06325 µM), 0.707; in test [3] (first compound 0.002 µM), 0.663; in test [3] (first compound 0.006325 µM) it was 0.637; in test [3] (first compound 0.02 µM), 0.618. Further, the relative viability in test [3] (first compound 0.06325 µM) came out at 0.633; in test [4] (first compound 0.002 µM), 0.775; in test [4] (first compound 0.006325 µM), 0.761; in test [4] (first compound 0.02 µM), 0.868; in test [4] (first compound 0.06325 µM), 0.766.
Regarding SK-LU-1, the relative viability in test [1] (first compound 0.001 µM) worked out at 0.462; in test [1] (first compound 0.003162 µM), 0.469; in test [1] (first compound 0.01 µM), 0.458; in test [1] (first compound 0.03162 µM), 0.467; in test [1] (first compound 0.1 µM), 0.432; in test [2] (first compound 0.002 µM), 0.455. Also, the relative viability came to 0.456 in test [2] (first compound 0.006325 µM); 0.564 in test [2] (first compound 0.02 µM); 0.438 in test [2] (first compound 0.06325 µM); 0.358 in test [3] (first compound 0.002 µM); 0.316 in test [3] (first compound 0.006325 µM); 0.396 in test [3] (first compound 0.02 µM). The relative viability in test [3] (first compound 0.06325 µM) worked out at 0.348; in test [4] (first compound 0.002 µM), 0.871; in test [4] (first compound 0.006325 µM), 0.931; in test [4] (first compound 0.02 µM), 1.11; in test [4] (first compound 0.06325 µM) it was 0.805.
For SK-MES-1, the relative viability is 0.685 in test [1] (first compound 0.001 µM); 0.678 in test [1] (first compound 0.003162 µM); 0.805 in test [1] (first compound 0.01 µM); 0.732 in test [1] (first compound 0.1 µM); 0.588 in test [2] (first compound 0.002 µM); 0.701 in test [2] (first compound 0.006325 µM). In addition, the relative viability in test [2] (first compound 0.02 µM) is 0.459; in test [2] (first compound 0.06325 µM), 0.218; in test [3] (first compound 0.002 µM) it was 0.582; in test [3] (first compound 0.006325 µM), 0.712; in test [3] (first compound 0.02 µM), 0.628; in test [3] (first compound 0.06325 µM), 0.19. The relative viability in test [4] (first compound 0.002 µM) was 1.01; in test [4] (first compound 0.006325 µM), 0.963; in test [4] (first compound 0.02 µM), 1.07; in test [4] (first compound 0.06325 µM), 0.85.
Regarding SW 1573, the relative viability in test [1] (first compound 0.001 µM) was 0.292; in test [1] (first compound 0.003162 µM), 0.538; in test [1] (first compound 0.01 µM), 0.572; in test [1] (first compound 0.1 µM) it was 0.581; in test [2] (first compound 0.002 µM), 0.59; in test [2] (first compound 0.006325 µM) it was 0.453. Moreover, the relative viability in test [2] (first compound 0.02 µM) came out at 0.16; in test [2] (first compound 0.06325 µM) it was 0.0853; in test [3] (first compound 0.002 µM), 0.549; in test [3] (first compound 0.006325 µM) it was 0.705; in test [3] (first compound 0.02 µM), 0.406; in test [3] (first compound 0.06325 µM) it was 0.0803. For the same cell line, the relative viability was 0.767 in test [4] (first compound 0.002 µM), 0.877 in test [4] (first compound 0.006325 µM), 0.902 in test [4] (first compound 0.02 µM) and 0.581 in test [4] (first compound 0.06325 µM).
For the cell line UMC-11, the relative viability in test [1] (first compound 0.001 µM) worked out at 0.365; in test [1] (first compound 0.003162 µM), 0.349; in test [1] (first compound 0.01 µM), 0.464; in test [1] (first compound 0.03162 µM), 0.315; in test [1] (first compound 0.1 µM) it was 0.471; in test [2] (first compound 0.002 µM), 0.56. Also, the relative viability in test [2] (first compound 0.006325 µM) was 0.745; in test [2] (first compound 0.02 µM), 0.771; in test [2] (first compound 0.06325 µM), 0.739; in test [3] (first compound 0.002 µM), 0.465; in test [3] (first compound 0.006325 µM), 0.499; in test [3] (first compound 0.02 µM), 0.514. In addition, the relative viability in test [3] (first compound 0.06325 µM) is 0.465; in test [4] (first compound 0.002 µM), 0.525; in test [4] (first compound 0.006325 µM) it was 0.602; in test [4] (first compound 0.02 µM), 0.684; in test [4] (first compound 0.06325 µM) it was 0.505.
